In PubChem BioAssay (NCI):
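Method: 48-hour compound exposure of cells in 96-well plates, five concentrations, linear interpolation of endpoints. GI50 = concentration required for 50% inhibition of growth. At the TGI there is no net growth.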

Assays:
Experiment in all cases: growth of human tumour cells (NCI), 48 h
SNB-75 CNS = tested on: SNB-75 CNS
MDA-MB-435 = tested on: MDA-MB-435
HCC-2998 colon = tested on: HCC-2998 colon
SF-295 CNS = tested on: SF-295 CNS
MDA-MB-231 breast = tested on: MDA-MB-231 breast
NCI/ADR-RES ovarian = tested on: NCI/ADR-RES ovarian
M14 melanoma = tested on: M14 melanoma
786-0 renal = tested on: 786-0 renal
CCRF-CEM leukemia = tested on: CCRF-CEM leukemia
UO-31 renal = tested on: UO-31 renal

SMILES	TGI (SNB-75 CNS)	TGI (MDA-MB-435)	TGI (HCC-2998 colon)	TGI (SF-295 CNS)	TGI (MDA-MB-231 breast)	TGI (NCI/ADR-RES ovarian)	TGI (M14 melanoma)	TGI (786-0 renal)	TGI (CCRF-CEM leukemia)	TGI (UO-31 renal)	GI50 (SNB-75 CNS)	GI50 (MDA-MB-435)	GI50 (HCC-2998 colon)	GI50 (SF-295 CNS)	GI50 (MDA-MB-231 breast)	GI50 (NCI/ADR-RES ovarian)	GI50 (M14 melanoma)	GI50 (CCRF-CEM leukemia)	GI50 (UO-31 renal)
O=C1/C(=C/c2ccc(Cl)cc2)Oc2cc(O)ccc21	> 100 µM	> 100 µM	> 100 µM	> 100 µM	> 100 µM	79.3 µM	> 100 µM	> 100 µM	52 µM	47.1 µM	–	–	–	–	–	–	–	–	–
COc1ccc(-n2c(SC(CN3CCOCC3)CN3CCCC3=O)nc3ccccc3c2=O)cc1 (stereo not given)	> 100 µM	> 100 µM	> 100 µM	> 100 µM	> 100 µM	> 100 µM	> 100 µM	> 100 µM	> 100 µM	> 100 µM	–	–	–	–	–	–	–	–	–
Oc1c(CN2CCCC2)ccc2cccnc12	> 100 µM	> 100 µM	> 100 µM	> 100 µM	> 100 µM	8.23 µM	80.7 µM	> 100 µM	> 73.6 µM	14.1 µM	–	–	–	–	–	–	–	–	–
CC(C)(C)NC1=NC(C(F)(F)F)(C(F)(F)F)NC(=O)N1	> 100 µM	> 100 µM	79 µM	> 100 µM	> 100 µM	> 100 µM	> 100 µM	> 100 µM	> 100 µM	> 100 µM	–	–	–	–	–	–	–	–	–
Nc1nc(Cl)cc(OCC2(CO)CCCC2)n1	> 100 µM	> 100 µM	> 100 µM	> 100 µM	–	> 100 µM	–	> 100 µM	> 100 µM	–	–	–	–	–	–	–	–	–	–
Cc1nn(C(=O)c2ccccc2O)c2c1C(c1ccc(O)cc1O)SC(N)=N2 (stereo not given)	> 10 µM	> 10 µM	–	> 10 µM	> 10 µM	9.33 µM	> 10 µM	> 10 µM	> 10 µM	8.02 µM	–	–	–	–	–	–	–	–	–
Cc1ccc(Cc2cc(N3CCN(c4cccc(Cl)c4)CC3)nnc2C)cc1	> 100 µM	> 100 µM	–	> 100 µM	> 100 µM	> 100 µM	> 100 µM	> 100 µM	–	> 100 µM	–	–	–	–	–	–	–	–	–
O=C(CN1CCCC1=O)CS(=O)(=O)c1ccccc1	> 100 µM	> 100 µM	> 100 µM	> 100 µM	–	> 100 µM	> 100 µM	> 100 µM	> 100 µM	> 100 µM	–	–	–	–	–	–	–	–	–
Cc1nnc(N)nc1/C=C\c1ccc(Cl)cc1Cl	–	> 100 µM	42.8 µM	53.8 µM	> 100 µM	> 100 µM	85.3 µM	> 100 µM	86.4 µM	> 100 µM	–	–	–	–	–	–	–	–	–
COC(=O)CN(CC(=O)NCCCBr)C1CCCCC1N(CC(=O)OC)CC(=O)OC (stereo not given)	64.9 µM	> 100 µM	> 100 µM	> 100 µM	> 100 µM	> 100 µM	–	> 100 µM	> 100 µM	> 100 µM	–	–	–	–	–	–	–	–	–
CCc1cc(C)cc2[n+]1CC=C2	70.6 µM	–	> 100 µM	> 100 µM	–	–	80.7 µM	> 100 µM	–	68.9 µM	–	–	–	–	–	–	–	–	–
COC(=O)Nc1nc2ccc(S(=O)(=O)Nc3ccccn3)cc2[nH]1	71.1 µM	44.5 µM	–	> 100 µM	> 100 µM	> 100 µM	> 100 µM	> 100 µM	54.2 µM	> 100 µM	–	–	–	–	–	–	–	–	–
COc1ccc2c(c1)Oc1cc(O)ccc1[C@H]2c1ccccc1C(=O)NC(C)c1ccccc1 (stereo not given in full)	35 µM	–	30.3 µM	25.9 µM	–	–	26.1 µM	34.9 µM	72.7 µM	25.5 µM	–	–	–	–	–	–	–	–	–
COC(C/C(=C/CO[Si](C(C)C)(C(C)C)C(C)C)C(=O)N(C(=O)OC(C)(C)C)c1ccccc1I)OC	> 100 µM	> 100 µM	> 100 µM	41 µM	–	> 100 µM	> 100 µM	> 100 µM	–	> 100 µM	–	–	–	–	–	–	–	–	–
O=C(NC(=S)Nc1ccc([N+](=O)[O-])cc1)c1ccc2c(c1)Sc1ccccc1O2	29.6 µM	> 100 µM	–	> 100 µM	> 100 µM	> 100 µM	> 100 µM	> 100 µM	> 100 µM	> 100 µM	–	–	–	–	–	–	–	–	–
COc1cccc2c1C(=O)c1c(O)c3c(c(O)c1C2=O)C[C@@](O)(C(C)=O)CC3S(=O)(=O)O (stereo not given in full)	> 93 µM	–	> 100 µM	> 100 µM	–	–	> 100 µM	> 100 µM	> 100 µM	> 100 µM	–	–	–	–	–	–	–	–	–
COC1=C[C@]2(CCC(=O)O2)[C@@H]2Cc3ccccc3[C@H](O)[C@@H]2C1=O	–	31 µM	> 100 µM	> 100 µM	> 100 µM	> 100 µM	> 100 µM	> 100 µM	35.8 µM	> 100 µM	–	–	–	–	–	–	–	–	–
COC(=O)CNC(=O)C(Cc1ccccc1)NC(=O)c1ccc(-c2ccc(Cl)cc2Cl)o1 (stereo not given)	> 100 µM	> 100 µM	–	64.3 µM	52.4 µM	> 100 µM	> 100 µM	38.7 µM	39.5 µM	> 100 µM	–	–	–	–	–	–	–	–	–
CC(=O)OCC1OC(N2C(=O)NC(=O)C3C=C4CCCCC4=CC32)CC1OC(C)=O (stereo not given)	> 100 µM	> 100 µM	–	> 100 µM	> 100 µM	> 100 µM	> 100 µM	> 100 µM	–	> 100 µM	–	–	–	–	–	–	–	–	–
Nc1nc(NCCOCP(=O)(O)O)c([N+](=O)[O-])c(=O)[nH]1	> 100 µM	–	> 100 µM	> 100 µM	–	–	> 100 µM	> 100 µM	> 100 µM	> 100 µM	–	–	–	–	–	–	–	–	–
Cc1c(C(=O)O)n2c(=S)[nH]nc2c2ccccc12	–	> 100 µM	> 100 µM	> 100 µM	> 100 µM	> 100 µM	> 100 µM	> 100 µM	> 100 µM	> 100 µM	–	–	–	–	–	–	–	–	–
CSc1cc(Cl)c(C)cc1S(=O)(=O)NC(=O)NNc1ccc(F)cc1	> 100 µM	> 100 µM	> 100 µM	> 100 µM	> 100 µM	> 100 µM	> 100 µM	> 100 µM	–	–	–	–	–	–	–	–	–	–	–
COc1ccc2c(c1)N(Cc1ccc(Cl)cc1)CCC2N1CCCC1=O (stereo not given)	35.8 µM	15 µM	> 100 µM	5.08 µM	98.5 µM	49.6 µM	17.6 µM	–	> 100 µM	14.6 µM	3.22 µM	3.77 µM	5.32 µM	1.67 µM	4.84 µM	3.72 µM	4.42 µM	4.74 µM	1.79 µM
